Molecules are shown by their SMILES.

For assay [1], the system named is barrier marker genes in differentiated normal human epidermal keratinocytes (NHEK). The assay is described as follows: qPCR mRNA expression of barrier marker genes in differentiated NHEK. The class given is cell-based. To be noted: qPCR data from two donors. As for the experimental part:
Treatment time—4 h. […] Data from two independent experiments. Exemplary barrier marker genes examined as follows: Epidermal growth factor (EGF); fibroblast growth factor 2 (FGF2); platelet derived growth factor (PDGF); Carnitine Palmitoyltransferase 2 (CPT2); Transglutaminase 4 (TGM4); Peroxisome Proliferator Activated Receptor Delta (PPARD); TNF Receptor Superfamily Member 10d (TNFRSF10D).
To test the effect of amino acid treatment on epithelial skin barrier, a cellular model of differentiated normal human epidermal keratinocytes (NHEK) was utilized. Commercially available NHEK (ATCC), derived from three diverse healthy donors, were used. Based on a multivariate analysis, three amino acids for the treatment: Ser, Gln and Gly were selected.
Using gene arrays, comparative analyses of two datasets were performed in three diverse donors focusing on consistently differentially [filter criterion of fold change 1.5 (positive or negative) and p-value <0.05)] expressed genes following treatment with various amino acids and combinations thereof. qPCR was used to assess the mRNA expression results. The qPCR results confirmed the array results pertaining to differential expression, thereby validating the panel of genes.
mRNA is extracted, converted to cDNA, and analyzed by qPCR method using custom TaqMan array 384-well plates (Thermo Fisher Scientific) containing 34 of the above-mentioned genes. Four control housekeeping genes are included to normalize the mRNA expression: GAPDH, POLR2A, YWHAZ and PGK1. The array plate will contain 38 genes in total and 10 samples can be analyzed in one run of qPCR.

The nature of assay [2]: Preliminary screens of amino acids. As for the experimental part:
In addition to the amino acid combinations described above, several other combinations are tested that include, e.g., Trp and/or Arg to determine if inclusion of these amino acids confers additional dermatological benefits. […] At the outset, the following combinations of amino acids are tested: Ala, Gln, Gly, Ser (combo #1); Ala, Gln, Gly, Ser, Val, Ile (combo #2); Ala, Gln, Gly, Ser, Val; Ala, Gln, Gly, Ser, Ile; Ala, Gln, Gly, Ser, Ile, Val, Trp; Ala, Gln, Gly, Ser, Ile, Val, Arg; and Ala, Gln, Gly, Ser, Ile, Val, Trp, Arg.

Assay [3] deals with HAS3 mRNA in human-derived epidermal keratinocytes (NHEK). The assay is described as follows: HAS3 mRNA fold change (qPCR) in keratinocytes. Format: cell-based. To be noted: 4GAA 4 mM, ROL 10 μM. In general terms: Quantitative PCR measures a nucleic acid by following its amplification.
For assay [4], the system named is HAS2 mRNA in human-derived epidermal keratinocytes (NHEK). Put plainly: HAS2 mRNA fold change (qPCR) in keratinocytes. The class given is cell-based. Conditions: 4GAA 4 mM, ROL 10 μM.
[5] abbreviates: Donor O and Donor R keratinocytes, 24 h in complete medium.
The mark [6] stands for this setting: NHEK Donors E, G, O, R, T, 4 h in amino acid-deprived medium.

Turning to `C[C@H](N)C(=O)O` [Ala, alanine], in assay [1], the “effectiveness in comparative analysis of qPCR data with scoring system” value (“effectiveness in comparative analysis” below) is reported as “most effective”. Take `N=C(N)NCCC[C@H](N)C(=O)O` [Arg, arginine]: the “effect in preliminary screens” value in assay [2] is given as “positive effects”. On to `N[C@@H](CC(=O)O)C(=O)O` [Asp, aspartic acid], for which, in assay [1], the “effectiveness in comparative analysis” value is “least effective”. Take `N[C@@H](CS)C(=O)O` [Cys, cysteine]: in assay [1], the “effectiveness in comparative analysis” value was “least effective”.

For the molecule `NC(=O)CC[C@H](N)C(=O)O` [Gln, glutamine], the “effectiveness in comparative analysis” value in assay [1] was “most effective”. The same measure, in the same setting: the entry for `NCC(=O)O` [Gly, glycine] is “most effective”. On the same count and under the same terms, the entry for `O=C(O)[C@@H]1CCCN1` [Pro, proline] is “least effective”. Take `CC1=C(/C=C/C(C)=C/C=C/C(C)=C/CO)C(C)(C)CCC1` [ROL, retinol]: the “HAS3 mRNA gene expression” value in assay [3] (setting [5]) is listed as “upregulated”. For the same molecule, the HAS3 gene expression entry in assay [3] (setting [6]) is recorded as “upregulated”. Besides, the “HAS2 mRNA gene expression” value in assay [4] (setting [5]) is “upregulated”. Moreover, the HAS2 gene expression entry in assay [4] (setting [6]) is on record as “upregulated”. Regarding `N[C@@H](CO)C(=O)O` [Ser, serine], the “effectiveness in comparative analysis” value in assay [1] is reported as “most effective”.

As to `C[C@@H](O)[C@H](N)C(=O)O` [Thr, threonine], in assay [1], the “effectiveness in comparative analysis” value is recorded as “least effective”. Regarding `N[C@@H](Cc1c[nH]c2ccccc12)C(=O)O` [Trp, tryptophan], the “effect in preliminary screens” value in assay [2] is recorded as “positive effects”. In the case of `N[C@@H](Cc1ccc(O)cc1)C(=O)O` [Tyr, tyrosine], the “effectiveness in comparative analysis” value in assay [1] is “least effective”.
